Reference: ChEMBL document CHEMBL5331060, “Bisindole natural products: A vital source for the development of new anticancer drugs” (Eur J Med Chem, 2022)
Converted amounts (≈) assume the structure as drawn. Each block holds one compound with its values, some of them ahead of it.

Key:
Assay type in all cases: functional, cell-based
[1] = Antiproliferative activity against mouse […] cells assessed as inhibition of cell growth
K562 [2] = test: Antiproliferative activity against human K562 cells assessed as inhibition of cell growth by MTT assay
A549 [3] = test: Antiproliferative activity against human A549 cells assessed as inhibition of cell growth by MTT assay
SMMC-7721 [4] = test: Antiproliferative activity against human SMMC-7721 cells assessed as inhibition of cell growth incubated for 48 hrs by MTS assay; settings: SMMC-7721, 48 h
A549 [5] = test: Antiproliferative activity against human A549 cells assessed as inhibition of cell growth incubated for 48 hrs by MTS assay; settings: A549, 48 h
HL-60 [6] = test: Antiproliferative activity against human HL-60 cells assessed as inhibition of cell growth incubated for 48 hrs by MTS assay; settings: HL-60, 48 h
MCF7 [7] = test: Antiproliferative activity against human MCF7 cells assessed as inhibition of cell growth incubated for 48 hrs by MTS assay; settings: MCF7, 48 h
SW480 [8] = test: Antiproliferative activity against human SW480 cells assessed as inhibition of cell growth incubated for 48 hrs by MTS assay; settings: SW480, 48 h
MCF7 [9] = test: Antiproliferative activity against human MCF7 cells assessed as inhibition of cell growth incubated for 48 hrs by MTT assay; settings: MCF7, 48 h
SW480 [10] = test: Antiproliferative activity against human SW480 cells assessed as inhibition of cell growth incubated for 48 hrs by MTT assay; settings: SW480, 48 h
A549 [11] = test: Antiproliferative activity against human A549 cells assessed as inhibition of cell growth incubated for 48 hrs by MTT assay; settings: A549, 48 h
HL-60 [12] = test: Antiproliferative activity against human HL-60 cells assessed as inhibition of cell growth incubated for 48 hrs by MTT assay; settings: HL-60, 48 h
SMMC-7721 [13] = test: Antiproliferative activity against human SMMC-7721 cells assessed as inhibition of cell growth incubated for 48 hrs by MTT assay; settings: SMMC-7721, 48 h
MCF7 [14] = test: Antiproliferative activity against human MCF7 cells assessed as inhibition of cell growth incubated for 24 hrs by MTT assay; settings: MCF7, 24 h
HL-60 [15] = test: Antiproliferative activity against human HL-60 cells assessed as inhibition of cell growth incubated for 48 hrs by WST-1 assay; settings: HL-60, 48 h
K562 [16] = test: Antiproliferative activity against human K562 cells assessed as inhibition of cell growth incubated for 48 hrs by WST-1 assay; settings: K562, 48 h
HeLa = test: Antiproliferative activity against human HeLa cells assessed as inhibition of cell growth incubated for 48 hrs by MTT assay
AGS = test: Antiproliferative activity against human AGS cells assessed as inhibition of cell growth incubated for 24 hrs by MTT assay
L1210 = test: Antiproliferative activity against mouse L1210 cells assessed as inhibition of cell growth incubated for 24 hrs by MTT assay; settings: L1210, 24 h
HepG2 = test: Antiproliferative activity against human HepG2 cells assessed as inhibition of cell growth by MTT assay

Structure (SMILES): Brc1ccc2c(-c3nc(-c4c[nH]c5ccccc45)c[nH]3)c[nH]c2c1 [NORTOPSENTIN B]
IC50 [1]: 7.8 µg/mL (≈ 20.7 µM)

Structure (SMILES): Brc1ccc2c(-c3c[nH]c(-c4c[nH]c5ccccc45)n3)c[nH]c2c1 [NORTOPSENTIN C]
IC50 [1]: 1.7 µg/mL (≈ 4.51 µM)

Structure (SMILES): CC[C@]12C=CCN3CCc4c(n(c5cc(OC)ccc45)[C@@H](c4cc5c(cc4OC)NC4=C(C(=O)OC)C[C@]6(CC)CCCN7CC[C@@]45[C@@H]76)C1)[C@@H]32
IC50 (MCF7 [9]): 3.24 µM
IC50 (SW480 [10]): 3.24 µM
IC50 (A549 [11]): 3.24 µM
IC50 (HL-60 [12]): 3.24 µM
IC50 (SMMC-7721 [13]): 3.24 µM

Structure (SMILES): CC[C@]12C=CCN3CC[C@]4(C(=C(C(=O)OC)C1)Nc1cc5c(cc14)[C@@H]1[C@H](O5)[C@@H](O)[C@@]4(CC)C=C(C(=O)OC)C5Nc6c(ccc(OC)c6O)[C@@]56CCN1[C@@H]46)[C@@H]32 (some centres not stated)
IC50 (SMMC-7721 [4]): 1.72 µM

Structure (SMILES): C/C=C1/CN2COC[C@]3(C(=O)OC)[C@@H]1C[C@@H](c1c(OC)ccc4c1NC1[C@@]4(O)CCN4C[C@H]5C[C@H](CC)[C@H]4[C@@]1(C(=O)OC)C5)c1[nH]c4ccccc4c1C[C@]23C (some centres not stated)
IC50 (MCF7 [9]): 4.7 µM
IC50 (SW480 [10]): 10.3 µM
IC50 (A549 [11]): 10.3 µM
IC50 (HL-60 [12]): 10.3 µM
IC50 (SMMC-7721 [13]): 10.3 µM

Structure (SMILES): CC[C@]12CN3CCc4c([nH]c5ccccc45)[C@@](C(=O)OC)(c4cc5c(cc4OC)N(C)[C@H]4[C@@](O)(C(=O)OC)[C@H](OC(C)=O)[C@]6(CC)C=CCN7CC[C@]54[C@@H]76)C[C@@H](C3)[C@H]1O2 [VINLEUROSINE]
IC50 (HL-60 [15]): 56.2 µM
IC50 (K562 [16]): 56.2 µM

Structure (SMILES): CC[C@@]12CC(C(=O)OC)=C3Nc4cc5c(cc4[C@@]34CCN(C[C@H]3O[C@H]31)[C@@H]24)[C@@H]1[C@H](O5)[C@@H](O)[C@@]2(CC)CC(C(=O)OC)=C3Nc4c(cc(O)c(OC)c4OC)[C@@]34CC[N+]1([O-])[C@@H]24 (some centres not stated)
IC50 (HeLa): 1.42 µM
IC50 (MCF7 [9]): 1.42 µM
IC50 (SW480 [10]): 1.42 µM

Structure (SMILES): CC[C@@]12CC(C(=O)OC)=C3Nc4cc5c(cc4[C@@]34CCN(C[C@@H]3O[C@@H]31)[C@@H]24)[C@@H]1[C@H](O5)[C@@H](O)[C@@]2(CC)CC(C(=O)OC)=C3Nc4c(cc(O)c(OC)c4OC)[C@@]34CCN1[C@@H]24
IC50 (HeLa): 1.42 µM
IC50 (MCF7 [9]): 1.42 µM
IC50 (SW480 [10]): 1.42 µM

Structure (SMILES): CC[C@]12CCCN3CCc4c(n(c5ccccc45)[C@@H](c4cc5c(cc4OC)NC4=C(C(=O)OC)C[C@]6(CC)CCCN7CC[C@@]45[C@@H]76)C1)[C@@H]32
IC50 (MCF7 [9]): 3.24 µM
IC50 (SW480 [10]): 3.24 µM
IC50 (A549 [11]): 3.24 µM
IC50 (HL-60 [12]): 3.24 µM
IC50 (SMMC-7721 [13]): 3.24 µM

Structure (SMILES): CC[C@]12C=CCN3CC[C@]4(C(=C(C(=O)OC)C1)Nc1cc(OC)c([C@@H]5[C@H]6O[C@H]6[C@@]6(CC)C=C(C(=O)OC)C7Nc8c(cc(O)c(OC)c8OC)[C@@]78CCN5[C@@H]68)cc14)[C@@H]32 (some centres not stated)
IC50 (SMMC-7721 [4]): 2.01 µM

Results, then the compound that gave them:

IC50 (K562 [2]): 24.2 µM
IC50 (A549 [3]): 24.2 µM
Structure (SMILES): CO[C@@]1(C(=O)c2c[nH]c3ccccc23)N=C(c2c[nH]c3cc(Br)ccc23)C(=O)N1

IC50 (SMMC-7721 [4]): 13.1 µM
IC50 (A549 [5]): 13.1 µM
IC50 (HL-60 [6]): 13.1 µM
IC50 (MCF7 [7]): 13.1 µM
IC50 (SW480 [8]): 13.1 µM
Structure (SMILES): CC[C@]12C=C([C@H]3C=C[C@@]4(CC)CC(C(=O)OC)=C5Nc6ccccc6[C@@]56CCN3[C@@H]46)CN3CC[C@]4(C(=C(C(=O)OC)C1)Nc1ccccc14)[C@@H]32

IC50 (MCF7 [14]): 31.7 µM
Structure (SMILES): O=C1C[C@H]2c3cc(O)c(O)cc3[C@]3(Nc4ccccc4C3=O)[C@]23C(=O)c2ccccc2N13

IC50 (AGS): 1.1 µg/mL (≈ 2.61 µM)
IC50 (L1210): 1.1 µg/mL (≈ 2.61 µM)
Structure (SMILES): O=C(c1nc(-c2c[nH]c3cc(Br)ccc23)c[nH]1)c1c[nH]c2cc(O)ccc12 [BROMOTOPSENTIN]

IC50 (SMMC-7721 [4]): 13.1 µM
IC50 (A549 [5]): 13.1 µM
IC50 (HL-60 [6]): 13.1 µM
IC50 (MCF7 [7]): 13.1 µM
IC50 (SW480 [8]): 13.1 µM
Structure (SMILES): CC[C@]12C=C([C@@H]3C=C[C@@]4(CC)CC(C(=O)OC)=C5Nc6ccccc6[C@@]56CCN3[C@@H]46)[C@@H](CC(C)=O)N3CC[C@]4(C(=C(C(=O)OC)C1)Nc1ccccc14)[C@@H]32

IC50 (AGS): 1.1 µg/mL (≈ 2.26 µM)
IC50 (L1210): 1.1 µg/mL (≈ 2.26 µM)
Structure (SMILES): O=C1NC[C@H](c2c[nH]c3cc(Br)ccc23)N=C1c1c[nH]c2cc(Br)ccc12 [HAMACANTHIN B]

IC50 (HL-60 [15]): 9.1 µM
IC50 (K562 [16]): 9.3 µM
Structure (SMILES): CC[C@]12C=CCN3CC[C@@]4(c5cc([C@@]6(C(=O)OC)C[C@@H]7CC(=O)N(CCc8c6[nH]c6ccccc86)C7)c(OC)cc5N(C)[C@H]4[C@@](O)(C(=O)OC)C1)[C@@H]32

IC50 (SMMC-7721 [4]): 13.1 µM
IC50 (A549 [5]): 13.1 µM
IC50 (HL-60 [6]): 13.1 µM
IC50 (MCF7 [7]): 13.1 µM
IC50 (SW480 [8]): 13.1 µM
Structure (SMILES): CC[C@]12C=C[C@H](C3=C[C@@]4(CC)CC(C(=O)OC)=C5Nc6ccccc6[C@@]56CCN([C@@H]3CC(C)=O)[C@@H]46)N3CC[C@]4(C(=C(C(=O)OC)C1)Nc1ccccc14)[C@@H]32

IC50 (HepG2): 38.1 µM
Structure (SMILES): C/C=C1/CN(C)[C@H]2Cc3c([nH]c4ccccc34)[C@H](c3c(OC)ccc4c5c6n(c34)C[C@@H]3C[C@@H](CC)[C@@H](NCC5)[C@@]6(C(=O)OC)C3)C[C@H]1[C@]2(CO)C(=O)OC
